Where “and” joins values, the source holds several entries; their conditions need not be identical. Identical values can stand only once. Where no end group is shown, it is not given here.
What was measured:
ABTS assay = details: peptides 0.05, 0.025, 0.0125 mg/mL, 1 h dark, absorbance 734 nm, triplicate
Protocol: The 2,2-azinobis-3-ethylbenzothiazoline-6-sulfonic acid (ABTS^+) free radical-scavenging activity was determined following the method in [38]. The ABTS⁺ radical cation was generated by diluting a 245 mM ammonium persulfate (APS) solution at a ratio of 1:100 with a 7 mM ABTS solution, followed by overnight incubation in the dark at room temperature. The ABTS^+ solution was then diluted with water to obtain an absorbance of 0.70 at 734 nm immediately before the assay using a Shimadzu 1240 UV-visible spectrophotometer (Kyoto, Japan). The peptides were dissolved in PBS, and 10 µL aliquots of each peptide solution were incubated with 190 µL of the ABTS^+ solution in triplicate, at final concentrations of 0.05, 0.025, and 0.0125 mg/mL. After a 1 h incubation in the dark, the absorbance was measured at 734 nm. The radical-scavenging activity was quantified against a standard curve, with the results expressed as milligrams of Trolox equivalents per milligram of peptide.

[1] = Carboxyfluorescein (CF) release from LUVs; parameters: species or system E. coli; details: at the lowest peptide concentrations (8, 32, 50, 64 μM tested); 10 min, ex 490 nm/em 517 nm, duplicate
Protocol: Large unilamellar vesicles (LUVs) were prepared with the total lipid extract of E. coli (Avanti Polar Lipids). For this, an aliquot of 1 mg of lipids dissolved in chloroform was deposited into a glass tube and dried by evaporation with nitrogen (N2). The glass tube underwent vacuum treatment to eliminate any residual solvent traces. The lipids were then hydrated in 200 μL of a 5,6-carboxyfluorescein (CF) solution (Sigma-Aldrich) at a concentration of 49 mM, pH 8, and 431 mOsm/kgH2O through nine cycles of heating (70 °C for 30 s), vortexing (1 min), and freezing (ice bath for 30 s). A polycarbonate filter with a pore size of 100 nm was employed to standardize the liposome size. Twenty-one extrusion cycles were conducted at 40 °C through the filter, resulting in LUVs with an average diameter of 100 nm. Size exclusion chromatography (Sephadex G-25) was utilized to remove the CF outside of the LUVs.
The fluorescence spectra of the CF-filled LUVs were measured using a FluoroMax3 Jobin Yvon spectrofluorometer (Horiba Jobin Yvon; Edison, NJ, USA). A 200 μL aliquot of the LUVs containing 100 μM CF was utilized for the experiment. Excitation was performed over a wavelength range of 400 to 540 nm, with the emission recorded at 517 nm. The peptides were added at various final concentrations (8, 32, 50, and 64 μM), and the fluorescence was assessed 10 min after each addition. […]

[2] = tested on: Staphylococcus aureus (ATCC 25923); format: cell-based
Protocol: (§1) Hylin-Pul3 and six derivatives (dHP3-31, dHP3-50, dHP3-50.137, dHP3-50.190, dHP3-84, and dHP3-84.39) were tested against two Gram-positive bacteria, Staphylococcus aureus (ATCC 25923) and Streptococcus mutans (ATCC 25175), as well as three Gram-negative bacteria: Escherichia coli (ATCC 25922), Klebsiella pneumoniae (ATCC 13883), and Acinetobacter baumannii (ATCC 13304). The minimal inhibitory concentration (MIC) was determined using the microbroth dilution.
(§2) The peptides were serially diluted in concentrations ranging 128 to 0.25 μM, with gentamicin serving as a positive control, which was serially diluted to concentrations of 20 to 0.04 μM. Bacterial cultures were prepared in Mueller–Hinton (MH) medium to achieve a final inoculum concentration of 5 × 10^5 CFU/mL. […] All tests were performed in duplicate and repeated across three independent experiments.

[3] = tested on: Acinetobacter baumannii (ATCC 13304); format: cell-based
Protocol: as §1, §2

[4] = tested on: Streptococcus mutans (ATCC 25175); format: cell-based
Protocol: as §1, §2

[5] = tested on: Escherichia coli (ATCC 25922); format: cell-based
Protocol: as §1, §2

[6] = tested on: Klebsiella pneumoniae (ATCC 13883); format: cell-based; details: ATCC 13883
Protocol: as §1, §2

E. coli (ATCC 25922) = experiment: Synergistic checkerboard assay; format: cell-based, Escherichia coli
Protocol: Briefly, working solutions of the peptides were prepared and serially diluted by half across the rows and columns of a microplate, ensuring that each well contained a unique combination of peptide concentrations. The starting concentrations corresponded to the respective MIC values of each peptide, followed by two-fold serial dilutions.
Each well was filled with 50 µL of the peptide solution (individual or combined) and 50 µL of a bacterial suspension (1 × 10^6 CFU/mL), resulting in a final bacterial concentration of 5 × 10^5 CFU/mL. The individual peptide solutions served as positive controls, while the MH medium was employed as a negative control. The microplates were incubated at 37 °C overnight. The test was performed in three independent experiments. The fractional inhibitory concentrations index (ΣFIC) was calculated using the following equation: (1) ∑FIC =MIC(A) in combination/MIC(A) alone+MIC(B) in combination /MIC(B) alone
The FIC index (ΣFIC) was interpreted as follows: ΣFIC ≤ 0.5 indicated synergy; 0.5 < ΣFIC ≤ 4 indicated no effect; and 4 < ΣFIC indicated antagonism.

[7] = DPPH radical-scavenging activity; details: peptides 0.1, 0.05, 0.025 mg/mL, 30 min dark 25 °C, absorbance 515 nm, triplicate
Protocol: A stock solution of 60 µM 1,1-diphenyl-2-picrylhydrazyl (DPPH) was prepared in ethanol, with its absorbance adjusted to 0.7 at 515 nm immediately before the assay using a Shimadzu 1240 UV–visible spectrophotometer (Kyoto, Japan). The peptides were dissolved in PBS, and 20 µL aliquots of each peptide solution were incubated with 180 µL of the ethanolic DPPH solution in triplicate, at final concentrations of 0.1, 0.05, and 0.025 mg/mL. For the negative control, 20 µL of PBS was mixed with 180 µL of the DPPH solution, while 20 µL of Trolox (6-hydroxy-2,5,7,8-tetramethylchroman-2-carboxylic acid) served as the positive control and standard. The mixtures were incubated in the dark at 25 °C for 30 min, after which, the absorbance was measured at 515 nm. The reduction in absorbance, indicative of DPPH-scavenging activity, was compared to a standard curve. The results were expressed as milligrams of Trolox equivalents per milligram of peptide (mg Trolox equivalents/mg of peptide).

[8] = tested on: Human primary fibroblasts; format: cell-based; details: MTT, 24 h
Protocol: Human primary fibroblasts were kindly provided by CellSeq Solutions (Belo Horizonte, Brazil) and cultured in DMEM (Dulbecco’s Modified Eagle’s Medium, Gibco, Waltham, MA, USA) supplemented with 10% (v/v) fetal bovine serum (FBS; Gibco, Waltham, MA, USA) and a 1000 U/mL penicillin/streptomycin solution (Gibco, Waltham, MA, USA). The cells were maintained at 5% CO2, 37 °C, and 95% humidity.
To investigate the impact of the antimicrobial peptides hylin-Pul3, dHP3-31, dHP3-50, dHP3-50.137, dHP3-50.190, dHP3-84, and dHP3-84.39 on primary human fibroblast proliferation and viability, the 3-(4,5-dimethylthiazol-2-yl)-2,5-diphenyl tetrazolium bromide (MTT) metabolization assay (Sigma Aldrich; Misuri, USA) was performed. Human fibroblast cells (7 × 10^3 cells/well) were plated in a 96-well plate and treated with 0.5, 1, 5, 10, 25, 50, and 100 μg/mL of each peptide for 24 h. After this period, the cells were incubated with 5 mg/mL MTT for 4 h. The formazan crystals formed were solubilized by adding dimethyl sulfoxide (DMSO). The absorbance was measured at 570 nm using a spectrophotometer (Multiskan™ FC Microplate Photometer; Thermo Fisher Scientific, Waltham, MA, USA).

[9] = versus parent peptide hylin-Pul3

Row | Substance | Antioxidant activity ABTS (ABTS assay) [mg Trolox/mg] | CF release from LUVs [1] [%] | Antimicrobial Activity (MIC) S. aureus ATCC 25923 [2] [µM] | Antimicrobial Activity (MIC) A. baumannii ATCC 13304 [3] [µM] | Reduction in MIC against A. baumannii compared to hylin-Pul3 [3, 9] [fold] | Antimicrobial Activity (MIC) S. mutans ATCC 25175 [4] [µM] | Antimicrobial Activity (MIC) E. coli ATCC 25922 [5] [µM] | Reduction in MIC of up to (Gram-negative strains) compared to hylin-Pul3 ([5]; strain not given, largest reduction) | Reduction in MIC against E. coli compared to hylin-Pul3 [5, 9] [fold] | Antimicrobial Activity (MIC) K. pneumoniae ATCC 13883 [6] [µM] | Synergistic Activity, FIC Index (ΣFIC) (E. coli (ATCC 25922); combination of dHP3-84 and dHP3-50.137, E. coli ATCC 25922, 5 × 10^5 CFU/mL, 37 °C overnight, three independent experiments, ΣFIC ≤ 0.5 = synergy) | Improvement of combined activity compared to each peptide individually (E. coli (ATCC 25922); dHP3-84 + dHP3-50.137, E. coli) [fold] | Antioxidant activity DPPH [7] | Concentration at which fibroblast viability increased (proliferative effect) [8]
1 | RAGALWPAIRGAIKKIIKK-NH2 [dHP3-50.137] | 0.08 | 50 | 64.0 ± 0.0 | 8.0 ± 0.0 | 4 | 32.0 ± 0.0 | 4.0 ± 0.0 | up to 8 fold | 4 | 53.3 ± 16.5 | 0.5 | 2 | did not reveal significant activity | 
2 | RRGKLIPRLAKAIGRLIRK-OH [dHP3-84.39] |  | 50 | 26.6 ± 8.3 | 16.0 ± 0.0 |  | >64 | 6.6 ± 4.8 |  |  | 64.0 ± 0.0 |  |  |  | 5 μg/mL and 2.3 µM

Source: publication PMC11939955, “Enhancing Antimicrobial Peptides from Frog Skin: A Rational Approach” (Biomolecules, 2025)
